Measured values published in paper PMC6105673 (Nature Communications, 2018).
*: point of attachment. Biotin = O=C1N[C@H]2[C@H](CS[C@H]2CCCCC(=O)*)N1

Experiments:
HIS6-PHD2 (181–426) [1] = assay: In vitro hydroxylation assay (HIS6-PHD2 treatment, then IVTT pVHL pull-down); type: biochemical; settings: unmodified biotinylated peptides, 15 μg/mL HIS6-PHD2 (181–426), 1 h room temperature, then IVTT HA-VHL30 under stringent buffer
Experimental: Considering that prolyl hydroxylation is indispensable for HIF-2α binding to pVHL, we next examined the notion that the A530V mutation negatively influences hydroxylation of HIF-2α via PHD2, which would attenuate HIF-2α A530V binding affinity for pVHL. We conducted an in vitro hydroxylation assay utilizing unmodified peptides (amino acids 523–542) incubated with purified HIS6-PHD2 (catalytic core, amino acids 181–426).
Fig. 5 A subset of class 1 mutations specifically disrupts PHD2-mediated hydroxylation. a, b Biotinylated HIF-2α peptides (residues 523–542) were immobilized on streptavidin- agarose beads and incubated with HIS6-PHD2 for 1 h at room temperature prior to incubation with in vitro transcribed and translated (IVTT) pVHL. Streptavidin beads were pulled down (PD) and levels of HA-tagged pVHL were visualized via immmunoblotting (IB). c HEK293a cells were co-transfected with FLAG-VHL and HA-HIF-2α constructs. FLAG was immunoprecipitated (IP) and levels of HA-tagged HIF-2α were visualized via immunoblotting (IB). * denotes uncharacterized band
The in vitro pVHL-HIF-2α hydroxylation assay was performed according to a previously published protocol. 5 μg of biotinylated HIF-2α peptide was immobilized on streptavidin-agarose beads. Subsequently, peptides were incubated with 15 μg/mL HIS6-PHD2 (181–426) in 500 μL of 40 mM HEPES pH 7.4, 80 mM KCl, 5 mM a-ketoglutarate, 2 mM ascorbic acid, 100 μM FeCl2 tetrahydrate solution at room temperature for 1 h. FeCl2 was stored under anoxic conditions to prevent oxidation. Following hydroxylation, beads were washed 5x with EBC buffer and peptides were incubated with IVTT HA-VHL30 under the stringent buffer conditions described above.

HIS6-PHD2 (181–426) [2] = assay: Steady-state pull-down of purified HIS6-PHD2 with biotinylated HIF-2α peptides; type: binding; settings: for affinity for PHD2 in steady-state pull-down (immunoblot, in words): peptides (523–542), purified HIS6-PHD2 (181–426), with 1 mM MnCl2 and 1 mM NOG, 2 h at 4 °C
Description: To first test this hypothesis, we performed steady-state pull-down experiments with HIF-2α peptides (523–542) and purified HIS6-PHD2 (181–426). To stabilize the interaction between enzyme and substrate, it was necessary to include MnCl2 and N-oxalylglycine (NOG) in the binding buffer. Mn^2+ and NOG substitute for Fe^2+ and αKG, respectively, which stabilizes the HIF-2α-PHD2 interaction while preventing enzymatic turnover. A similar strategy was employed during co-crystallization of HIF-1α peptide with PHD2[43]. We observed that […] tested HIF-2α mutations result in decreased affinity for PHD2 (Supplementary Figure 6a). […] Next, we co-transfected HEK293a cells with 3xFLAG-HIF-2α ODD and HA-PHD2 constructs. […] The increased binding of the M535I mutant to PHD2 was not observed in this experiment. One important caveat is that the HIF-2α ODD constructs contain both the P405 and P531 sites. Thus, the residual PHD2 binding observed among HIF-2α mutants may partially be driven by the P405 site, which may mask differential PHD2 binding among the HIF-2α mutant ODD constructs.
5 μg of biotinylated HIF-2α peptide (WT or mutant) was immobilized on streptavidin agarose beads and incubated with a […] solution of purified HIS6-PHD2 (181–426) in 50 mM Tris-HCl pH 7.5, 0.005% (v/v) Tween-20 buffer supplemented with or without 1 mM MnCl2 and 1 mM NOG, for 2 h at 4 °C. Beads were washed 2x with the same buffer. Biotinylated peptide was pulled down via streptavidin agarose beads and protein was eluted by boiling beads in sample buffer. Protein levels of HIS6-PHD2 were determined by western blotting. Uncropped western blots are provided in Supplementary Figure 8.
Supplementary Figure 6. HIF-2α mutations disrupt PHD2 binding. (A) Biotinylated HIF-2α peptides (523-542, except where noted) were immobilized on streptavidin- agarose beads and incubated with purified HIS6-PHD2 (181-426) in the presence or absence of 1 mM MnCl2 and 1 mM N-oxalylglycine (NOG).
Streptavidin beads were pulled down (PD) and levels of HIS6-tagged PHD2 were visualized via immmunoblotting (IB). […]

HIS6-PHD2(181-426) = assay: Biolayer interferometry of HIS6-PHD2 binding to biotinylated HIF-2α peptides (523-542); settings: BLI, 1 mM MnCl2 and 1 mM N-oxalylglycine, from mM to μM, accurate constants not possible (PHD2 aggregation)
Description: 2. The authors concluded that some of class 1 mutation affects PHD2-mediated hydroxylation of HIF-2α (Fig. 4). I think it is better to examine the interaction between HIF -2α mutants and PHD2 utilizing IP-Western and BLI. Also, negative controls (non-hydroxylated HIF-2α peptide without PHD2 treatment) should be included in Fig. 4A and 4B.
RE S PO N S E : Done. We performed binding assays with recombinant PHD2 to test the reviewer’s […]
major technical hurdle with performing binding assay with enzymes is overcoming the inherently transient nature of the interaction.
In an effort to stabilize the interaction between HIF-2α peptide and PHD2, we incorporated a technique that was used during co-crystallization of HIF-1α peptide with PHD2 (Chowdhury et al., 2009). As PHD2 normally forms a stable complex with co-factors Fe2+ and α-ketoglutarate (αK G), we formed a complex of PHD2 with Mn2+ and N-oxalylglycine (NOG), which mimic iron and αK G, […]
During BLI experiments, the addition of […]
Figure X. Biolayer interferometry studies of HIF-2α peptide binding to PHD2. […] Biotinylated peptides were coupled to streptavidin- coated biosensors and monitored for binding to PHD2 at the indicated concentrations in the presence or absence of 1 mM MnCl2 and 1 mM N-oxalylglycine. The data were analyzed based on a 1:1 binding model using the BLItz Pro software with the fitted curves shown as gray lines. […]

[3] = target: T1, HIS6-PHD2 (catalytic core, amino acids 181–426) (UniProt Q9GZT9 181-426); assay: pull-down; biotinylated unmodified peptide on streptavidin agarose, purified HIS6-PHD2 (181–426), 50 mM Tris-HCl pH 7.5, 0.005% Tween-20 with 1 mM MnCl2 and 1 mM NOG, 2 h at 4 °C; anti-HIS blot; settings: both partners purified
T1 construct: prolyl hydroxylase domain containing enzyme 2 (PHD2, encoded by EGLN1), catalytic core, residues 181-426; plasmid pET-46 HIS6-PHD2; also called purified HIS6-PHD2 (181–426); source: E. coli BL21(DE3), purified (nickel sepharose, SEC)
T1 sequence (Q9GZT9 181-426): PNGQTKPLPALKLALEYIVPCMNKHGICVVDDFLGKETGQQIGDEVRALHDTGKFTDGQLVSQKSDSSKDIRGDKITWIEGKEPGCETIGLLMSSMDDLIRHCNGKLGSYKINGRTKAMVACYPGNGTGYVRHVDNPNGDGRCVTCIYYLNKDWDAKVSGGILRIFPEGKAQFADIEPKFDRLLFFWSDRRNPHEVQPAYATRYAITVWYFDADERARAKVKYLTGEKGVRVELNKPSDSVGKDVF

| Molecule | binding to pVHL following HIS6-PHD2 treatment (immunoblot, in words) (HIS6-PHD2 (181–426) [1]) | affinity for PHD2 in steady-state pull-down (immunoblot, in words) (HIS6-PHD2 (181–426) [2]) | decrease of Kd for PHD2 on addition of Mn2+ and NOG (HIS6-PHD2(181-426)) | pull-down of recombinant PHD2 (in words) (HIS6-PHD2 (181–426) [2]; earlier experiments, without Mn2+/NOG stabilization) | binding result [3] |
| --- | --- | --- | --- | --- | --- |
| Bio-HIF-2α(M535I): unmodified HIF-2α peptide (523–542) with M535I mutation (Biotin-ELDLETLAPYIPIDGEDFQL-NH2; SMILES CC[C@H](C)[C@H](NC(=O)[C@@H]1CCCN1C(=O)[C@@H](NC(=O)[C@H](Cc1ccc(O)cc1)NC(=O)[C@@H]1CCCN1C(=O)[C@H](C)NC(=O)[C@H](CC(C)C)NC(=O)[C@@H](NC(=O)[C@H](CCC(=O)O)NC(=O)[C@H](CC(C)C)NC(=O)[C@H](CC(=O)O)NC(=O)[C@H](CC(C)C)NC(=O)[C@H](CCC(=O)O)NC(=O)CCCC[C@@H]1SC[C@@H]2NC(=O)N[C@@H]21)[C@@H](C)O)[C@@H](C)CC)C(=O)N[C@@H](CC(=O)O)C(=O)NCC(=O)N[C@@H](CCC(=O)O)C(=O)N[C@@H](CC(=O)O)C(=O)N[C@@H](Cc1ccccc1)C(=O)N[C@@H](CCC(N)=O)C(=O)N[C@@H](CC(C)C)C(N)=O) | still retained affinity for pVHL | not as deleterious |  |  |  |
| ELDLETLA[Hyp/P]YIPMDGEDFQL [Bio-HIF-2α(523-542;WT)] | bound robustly | observed binding | roughly 1000 fold | failed to pull -down recombinant PHD2 protein |  |
| HIF-2α L542P peptide: unmodified HIF-2α peptide (523–542) with class 1 mutation L542P (Biotin-ELDLETLAPYIPMDGEDFQP-NH2; SMILES CC[C@H](C)[C@H](NC(=O)[C@H](Cc1ccc(O)cc1)NC(=O)[C@@H]1CCCN1C(=O)[C@H](C)NC(=O)[C@H](CC(C)C)NC(=O)[C@@H](NC(=O)[C@H](CCC(=O)O)NC(=O)[C@H](CC(C)C)NC(=O)[C@H](CC(=O)O)NC(=O)[C@H](CC(C)C)NC(=O)[C@H](CCC(=O)O)NC(=O)CCCC[C@@H]1SC[C@@H]2NC(=O)N[C@@H]21)[C@@H](C)O)C(=O)N1CCC[C@H]1C(=O)N[C@@H](CCSC)C(=O)N[C@@H](CC(=O)O)C(=O)NCC(=O)N[C@@H](CCC(=O)O)C(=O)N[C@@H](CC(=O)O)C(=O)N[C@@H](Cc1ccccc1)C(=O)N[C@@H](CCC(N)=O)C(=O)N1CCC[C@H]1C(N)=O) | failed to bind pVHL |  |  |  |  |
| Biotin-ELDLETLAPYIPMDGEDFQL-NH2 (SMILES CC[C@H](C)[C@H](NC(=O)[C@H](Cc1ccc(O)cc1)NC(=O)[C@@H]1CCCN1C(=O)[C@H](C)NC(=O)[C@H](CC(C)C)NC(=O)[C@@H](NC(=O)[C@H](CCC(=O)O)NC(=O)[C@H](CC(C)C)NC(=O)[C@H](CC(=O)O)NC(=O)[C@H](CC(C)C)NC(=O)[C@H](CCC(=O)O)NC(=O)CCCC[C@@H]1SC[C@@H]2NC(=O)N[C@@H]21)[C@@H](C)O)C(=O)N1CCC[C@H]1C(=O)N[C@@H](CCSC)C(=O)N[C@@H](CC(=O)O)C(=O)NCC(=O)N[C@@H](CCC(=O)O)C(=O)N[C@@H](CC(=O)O)C(=O)N[C@@H](Cc1ccccc1)C(=O)N[C@@H](CCC(N)=O)C(=O)N[C@@H](CC(C)C)C(N)=O, Used for the pull-down of HIS6-PHD2; source: synthetic peptide (Genscript)) [HIF-2α WT peptide (523-542), unmodified] |  |  |  |  | binds |
| Biotin-ELDLETLAPYIPIDGEDFQL-NH2 (peptide, UniProt Q99814 523-542, looked up, SMILES CC[C@H](C)[C@H](NC(=O)[C@@H]1CCCN1C(=O)[C@@H](NC(=O)[C@H](Cc1ccc(O)cc1)NC(=O)[C@@H]1CCCN1C(=O)[C@H](C)NC(=O)[C@H](CC(C)C)NC(=O)[C@@H](NC(=O)[C@H](CCC(=O)O)NC(=O)[C@H](CC(C)C)NC(=O)[C@H](CC(=O)O)NC(=O)[C@H](CC(C)C)NC(=O)[C@H](CCC(=O)O)NC(=O)CCCC[C@@H]1SC[C@@H]2NC(=O)N[C@@H]21)[C@@H](C)O)[C@@H](C)CC)C(=O)N[C@@H](CC(=O)O)C(=O)NCC(=O)N[C@@H](CCC(=O)O)C(=O)N[C@@H](CC(=O)O)C(=O)N[C@@H](Cc1ccccc1)C(=O)N[C@@H](CCC(N)=O)C(=O)N[C@@H](CC(C)C)C(N)=O, Used for the pull-down of HIS6-PHD2; also called M535I class 2 mutant; source: synthetic peptide (Genscript)) [HIF-2α M535I peptide (523-542), unmodified] |  |  |  |  | binds |
